According to ChEMBL document CHEMBL1157205, “Design, synthesis, and biological evaluation of glycine-based molecular tongs as inhibitors of Abeta1-40 aggregation in vitro” (Bioorg Med Chem, 2008):

Experiment: Inhibition of amyloid beta (1 to 40) aggregation assessed as emission of thioflavin T fluorescence at 100 uM in presence of 1,1,1,3,3,3-hexaflouro-2-propanol

| Compound | inhibition |
| --- | --- |
| O=C(CNC(=O)c1ccccc1)NCc1cccc(CNC(=O)CNC(=O)c2ccccc2)c1 | 9% |
| O=C(CNC(=O)CNC(=O)c1cc(O)c(O)c(O)c1)NCC(=O)NCc1cccc(CNC(=O)CNC(=O)CNC(=O)CNC(=O)c2cc(O)c(O)c(O)c2)c1 | 4% |
| COc1cc(C(=O)NCC(=O)NCC(=O)Nc2ccc(Oc3cccc(NC(=O)CNC(=O)CNC(=O)c4cc(OC)c(OC)c(OC)c4)c3)cc2)cc(OC)c1OC | 40% |
| O=C(CNC(=O)CNC(=O)c1cc([N+](=O)[O-])cc([N+](=O)[O-])c1)NCc1cccc(CNC(=O)CNC(=O)CNC(=O)c2cc([N+](=O)[O-])cc([N+](=O)[O-])c2)c1 | 23% |
| O=C(CNC(=O)CNC(=O)c1cc([N+](=O)[O-])cc([N+](=O)[O-])c1)NCC(=O)Nc1ccc(Oc2cccc(NC(=O)CNC(=O)CNC(=O)CNC(=O)c3cc([N+](=O)[O-])cc([N+](=O)[O-])c3)c2)cc1 | 4% |
| COc1cc(C(=O)NCC(=O)NCC(=O)NCC(=O)NCc2cccc(CNC(=O)CNC(=O)CNC(=O)CNC(=O)c3cc(OC)c(OC)c(OC)c3)c2)cc(OC)c1OC | 15% |
| COc1cc(C(=O)NCC(=O)NCc2cccc(CNC(=O)CNC(=O)c3cc(OC)c(OC)c(OC)c3)c2)cc(OC)c1OC | 28% |
| O=C(CNC(=O)CNC(=O)c1ccccc1)NCC(=O)Nc1ccc(Oc2cccc(NC(=O)CNC(=O)CNC(=O)CNC(=O)c3ccccc3)c2)cc1 | -3% |
| COc1cc(C(=O)NCC(=O)NCC(=O)NCC(=O)O)cc(OC)c1OC | 11% |
| O=C(CNC(=O)c1cc(O)c(O)c(O)c1)Nc1ccc(Oc2cccc(NC(=O)CNC(=O)c3cc(O)c(O)c(O)c3)c2)cc1 | 79% |
| O=C(NCc1cccc(CNC(=O)c2ccccc2)c1)c1ccccc1 | 3% |
| COc1cc(C(=O)NCC(=O)Nc2ccc(Oc3cccc(NC(=O)CNC(=O)c4cc(OC)c(OC)c(OC)c4)c3)cc2)cc(OC)c1OC | 9% |
| COc1cc(C(=O)NCC(=O)NCC(=O)NCc2cccc(CNC(=O)CNC(=O)CNC(=O)c3cc(OC)c(OC)c(OC)c3)c2)cc(OC)c1OC | 31% |
| O=C(CNC(=O)c1cc([N+](=O)[O-])cc([N+](=O)[O-])c1)NCC(=O)Nc1ccc(Oc2cccc(NC(=O)CNC(=O)CNC(=O)c3cc([N+](=O)[O-])cc([N+](=O)[O-])c3)c2)cc1 | 30% |
| O=C(CNC(=O)CNC(=O)c1cc([N+](=O)[O-])cc([N+](=O)[O-])c1)NCC(=O)NCc1cccc(CNC(=O)CNC(=O)CNC(=O)CNC(=O)c2cc([N+](=O)[O-])cc([N+](=O)[O-])c2)c1 | 13% |
| O=C(Nc1ccc(Oc2cccc(NC(=O)c3cc(O)c(O)c(O)c3)c2)cc1)c1cc(O)c(O)c(O)c1 | 70% |
| O=C(CNC(=O)c1ccccc1)Nc1ccc(Oc2cccc(NC(=O)CNC(=O)c3ccccc3)c2)cc1 | 7% |

| Compound | inhibition |
| --- | --- |
| O=C(CNC(=O)c1ccccc1)NCC(=O)Nc1ccc(Oc2cccc(NC(=O)CNC(=O)CNC(=O)c3ccccc3)c2)cc1 | -3% |
| O=C(CNC(=O)c1cc([N+](=O)[O-])cc([N+](=O)[O-])c1)Nc1ccc(Oc2cccc(NC(=O)CNC(=O)c3cc([N+](=O)[O-])cc([N+](=O)[O-])c3)c2)cc1 | 44% |
| O=C(NCc1cccc(CNC(=O)c2cc(O)c(O)c(O)c2)c1)c1cc(O)c(O)c(O)c1 | 61% |
| O=C(CNC(=O)c1cc(O)c(O)c(O)c1)NCC(=O)Nc1ccc(Oc2cccc(NC(=O)CNC(=O)CNC(=O)c3cc(O)c(O)c(O)c3)c2)cc1 | 80% |
| O=C(CNC(=O)c1cc([N+](=O)[O-])cc([N+](=O)[O-])c1)NCc1cccc(CNC(=O)CNC(=O)c2cc([N+](=O)[O-])cc([N+](=O)[O-])c2)c1 | 33% |
| O=C(CNC(=O)CNC(=O)c1ccccc1)NCC(=O)NCc1cccc(CNC(=O)CNC(=O)CNC(=O)CNC(=O)c2ccccc2)c1 | 19% |
| O=C(CNC(=O)c1cc(O)c(O)c(O)c1)NCc1cccc(CNC(=O)CNC(=O)c2cc(O)c(O)c(O)c2)c1 | 39% |
| Nc1cccc(Oc2ccc(NC(=O)CNC(=O)CNC(=O)c3cc([N+](=O)[O-])cc([N+](=O)[O-])c3)cc2)c1 | 0% |
| O=C(O)CNC(=O)CNC(=O)CNC(=O)c1cc([N+](=O)[O-])cc([N+](=O)[O-])c1 | 36% |
| COc1cc(C(=O)NCCCCC(=O)Nc2ccc(Oc3cccc(NC(=O)CCCCNC(=O)c4cc(OC)c(OC)c(OC)c4)c3)cc2)cc(OC)c1OC | 0% |
| COc1cc(C(=O)NCc2cccc(CNC(=O)c3cc(OC)c(OC)c(OC)c3)c2)cc(OC)c1OC | 19% |
| O=C(CNC(=O)CNC(=O)c1cc(O)c(O)c(O)c1)NCc1cccc(CNC(=O)CNC(=O)CNC(=O)c2cc(O)c(O)c(O)c2)c1 | 5% |
| O=C(CNC(=O)C1CCCCC1)NCC(=O)Nc1ccc(Oc2cccc(NC(=O)CNC(=O)CNC(=O)C3CCCCC3)c2)cc1 | 17% |
| O=C(CNC(=O)CNC(=O)c1ccccc1)NCc1cccc(CNC(=O)CNC(=O)CNC(=O)c2ccccc2)c1 | 10% |
| COc1cc(C(=O)NCC(=O)NCC(=O)NCC(=O)Nc2ccc(Oc3cccc(NC(=O)CNC(=O)CNC(=O)CNC(=O)c4cc(OC)c(OC)c(OC)c4)c3)cc2)cc(OC)c1OC | 20% |
| O=C(NCc1cccc(CNC(=O)c2cc([N+](=O)[O-])cc([N+](=O)[O-])c2)c1)c1cc([N+](=O)[O-])cc([N+](=O)[O-])c1 | 4% |
| O=C(CNC(=O)CNC(=O)c1cc([N+](=O)[O-])cc([N+](=O)[O-])c1)NCCCNCCCNC(=O)CNC(=O)CNC(=O)c1cc([N+](=O)[O-])cc([N+](=O)[O-])c1 | 9% |

Experiment: Inhibition of amyloid beta (1 to 40) aggregation assessed as emission of thioflavin T fluorescence in presence of 1,1,1,3,3,3-hexaflouro-2-propanol

| Compound | IC50 |
| --- | --- |
| O=C(CNC(=O)c1cc(O)c(O)c(O)c1)Nc1ccc(Oc2cccc(NC(=O)CNC(=O)c3cc(O)c(O)c(O)c3)c2)cc1 | 1.5 µM |
| O=C(Nc1ccc(Oc2cccc(NC(=O)c3cc(O)c(O)c(O)c3)c2)cc1)c1cc(O)c(O)c(O)c1 | 12 µM |
| O=C(CNC(=O)c1cc(O)c(O)c(O)c1)NCC(=O)Nc1ccc(Oc2cccc(NC(=O)CNC(=O)CNC(=O)c3cc(O)c(O)c(O)c3)c2)cc1 | 28 µM |
| O=c1c(O)c(-c2ccc(O)c(O)c2)oc2cc(O)cc(O)c12 [QUERCETIN] | 0.8 µM |
